Laboratory results from patent publication US20250382298A1, “NITROGEN-CONTAINING COMPOUND AND USE THEREOF” (SUZHOU GENHOUSE BIO CO., LTD., priority 2022, published 2025).

What was measured:
KIF18A = KIF18A (Homo sapiens (Human), UniProt Q8NI77); test: KIF18A enzymatic activity inhibition, ADP-Glo kit; assay type: biochemical; conditions: 4 nM KIF18A, 30 μM ATP
Experimental: In this experiment, an ADP-Glo kit was used to detect the inhibitory activity of the compounds against KIF18A. Each compound was prepared into a 10 mM stock solution with DMSO, which was then diluted at 1:5 to obtain 9 gradients with the initial final concentration set at 10 μM. Meanwhile, a control group and a blank group were also set up. The reaction buffer consisted of 15 mM Tris (pH 7.5), 10 mM MgCl2, and 0.01% Pluronic F-68. 4 nM KIF18A (1467) and the test compound were added to a 384-well plate and incubated at 37° C. for 20 mm. Then, 30 μM ATP was added to initiate the enzymatic reaction, and the plate was incubated at room temperature for 15 min. Finally, the ADP-Glo reagent was added to detect the luminescence intensity, where the luminescence intensity is directly proportional to the ADP content. Inhibition rate (%)=[…]. Sample signal is the value of the compound group, and DMSO signal is the value of the DMSO control group. Then, the inhibition rate at each concentration was calculated, and the IC50 was determined by fitting using the GraphPadPrism 7.0 software.

HCT-116 cells [1] = test: Mitotic index analysis, pH3 expression in HCT-116 cells; assay type: cell-based; conditions: 24 h treatment
How it was run: (§1)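 HCT-116 or HT-29 cells treated 24 h with 9-point 3-fold dilutions from 10 μM, then fixed and immunostained for phospho-histone H3 with DRAQ5 counterstain. Near-infrared fluorescence read at 700/800 nm; pH3 expressed as % of DMSO control and EC50 fitted.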

HT-29 cells [2] = test: Mitotic index analysis, pH3 expression in HT-29 cells; assay type: cell-based, human; conditions: 24 h treatment
How it was run: as §1

[3] = Pharmacokinetic test in rats; assay type: in vivo; conditions: SD rats, PO @5mpk; for AUC / Cmax / half-life: rat, plasma, 5 mg/kg; for half-life: read-out: t½ (converted)
Experimental: In this example, the pharmacokinetic behavior of the compounds after intravenous injection (IV) and intragastric (PO) administration in SD rats was tested.
On the day of administration, rats were weighed for actual body weight and the administration volume was calculated. Each compound was tested in two groups with 3 rats in each group; one group was subjected to administration by single intravenous injection, and the other group was subjected to single intragastric administration. Whole blood samples were collected via the jugular vein at prescribed time points (0.25 h, 0.5 h, 1 h, 2 h, 4 h, 8 h, and 24 h after administration). After blood sample collection, the samples were immediately transferred to labeled commercial sample tubes containing K2-EDTA (0.85-1.15 mg), followed by centrifugation (3200×g, 4° C., 10 min) and plasma collection. The plasma was transferred to a pre-cooled centrifuge tube, frozen in dry ice, and then stored in an ultra-low temperature freezer at −60° C. or lower until the LC-MS/MS analysis.
Plasma concentrations were determined by the LC-MS/MS method. Plasma drug concentration data for the compounds were processed using a non-compartmental model in the WinNonlin Version 6.3 (Pharsight, Mountain View, CA) pharmacokinetic software. The relevant pharmacokinetic parameters were calculated by a linear-log trapezoidal method.

BT-549 cells = test: Detection of cell proliferation activity by CCK8 method (BT-549); assay type: cell-based; conditions: CCK8, 96 h
How it was run: (§2)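 Cells seeded at 1500/well (BT-549, 1640 medium) or 2000/well (HT-29, HCT-116, McCoy's 5A), treated next day with 9-point 1:5 dilutions from 10 μM final, triplicate, for 96 h. CCK8 read at 450 nm after 2 h at 37 °C; inhibition versus DMSO, IC50 by non-linear regression.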

HT-29 cells [4] = test: Detection of cell proliferation activity by CCK8 method (HT-29); assay type: cell-based, human; conditions: CCK8, 96 h
How it was run: as §2

HCT-116 cells [5] = test: Detection of cell proliferation activity by CCK8 method (HCT-116); assay type: cell-based; conditions: CCK8, 96 h
How it was run: as §2

OVCAR3 cells [6] = test: Detection of OVCAR3 cell proliferation activity by CTG method; assay type: cell-based; conditions: CellTiter-Glo, 7 days
Source text: This assay can be used to examine the potency of compounds in inhibiting the proliferation of tumor cells (OVCAR3, HT-29, BT-549, HCT-116). A lower IC50 value indicates high potency of the compound as a KIF18A inhibitor in the following assay setup,
1640 medium; fetal bovine serum; penicillin/streptomycin antibiotics purchased from Wisent; CellTiter-Glo (chemiluminescence detection reagent for cell viability) reagent purchased from Promega; OVCAR3 cell line purchased from Nanjing Cobioer Biosciences Co., Ltd.; Nivo multimode microplate reader (PerkinElmer),
OVCAR3 cells were seeded into a white 96-well plate, with 80 μL of cell suspension containing 2000 OVCAR3 cells added to each well. The cell plate was incubated in a CO2 incubator overnight.
A test compound was 5-fold diluted to the 8th concentration (i.e., from 2 mM to […]) using a multichannel pipette, with duplicate wells set up. To an intermediate plate was added 78 μL of medium, and the serially diluted compound was transferred to the corresponding wells of the intermediate plate at 2 μL/well. The mixture was mixed well and then transferred to the cell plate at 20 μL/well. The concentration of the compound transferred to the cell plate ranged from 10 μM to 0.026 nM. The cell plate was incubated in a CO2 incubator for 7 days. Another cell plate was prepared and read for signal values on the day of compound addition, and these values were used as the maximum values (the Max value in the equation below) in data analysis. To this cell plate was added the chemiluminescence detection reagent for cell viability at 25 μL/well, and the luminescence signals were stabilized by incubation at room temperature for 10 min. Readings were taken using the multimode microplate reader.
To the cell plate was added the chemiluminescence detection reagent for cell viability at 25 μL/well, and the luminescence signals were stabilized by incubation at room temperature for 10 mm. Readings were taken using the multimode microplate reader, […]

OVCAR3 cells [7] = test: Detection of cell proliferation activity by CCK8 method (OVCAR3); assay type: cell-based
How it was run: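 OVCAR3 tumor cells in log-phase growth were trypsinized, counted and plated at 180 μL per well in 96-well plates, with PBS in the outer wells. The following day, compounds were added in 9 concentrations (1:5 dilutions starting at 10 μM final) in triplicate alongside DMSO controls. After 96 h, medium was swapped for 100 μL medium containing 10% CCK8. Plates were incubated 2 h at 37° C and read at 450 nm. Background-corrected inhibition relative to DMSO was fitted by non-linear regression in GraphPad Prism 7.0 to obtain IC50.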

KIF18A, sequence (Q8NI77 1-467): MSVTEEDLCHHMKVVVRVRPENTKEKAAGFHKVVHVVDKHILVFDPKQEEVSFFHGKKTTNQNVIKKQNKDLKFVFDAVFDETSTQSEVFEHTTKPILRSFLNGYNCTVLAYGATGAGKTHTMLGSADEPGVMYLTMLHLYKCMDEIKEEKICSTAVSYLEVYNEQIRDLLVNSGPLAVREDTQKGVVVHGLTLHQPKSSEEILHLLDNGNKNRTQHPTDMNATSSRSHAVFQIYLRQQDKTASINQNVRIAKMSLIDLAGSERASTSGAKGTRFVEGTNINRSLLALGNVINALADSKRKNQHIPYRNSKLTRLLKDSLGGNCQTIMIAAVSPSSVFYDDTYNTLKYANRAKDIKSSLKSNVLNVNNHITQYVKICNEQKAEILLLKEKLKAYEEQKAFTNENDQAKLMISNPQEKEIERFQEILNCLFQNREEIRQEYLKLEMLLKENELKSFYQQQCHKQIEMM

Structure (SMILES) | IC50 (KIF18A) [nM] | EC50 (HCT-116 cells [1]; Homo sapiens) [nM] | EC50 (HT-29 cells [2]; Homo sapiens) [nM] | F [3] [%] | AUC [3] [µM·h] | Cmax [3] [nM] | half-life [3] [h] | IC50 (BT-549 cells; Homo sapiens) [nM] | IC50 (HT-29 cells [4]; Homo sapiens) [nM] | IC50 (HCT-116 cells [5]; Homo sapiens) [nM] | IC50 (OVCAR3 cells [6]; Homo sapiens, OVCAR-3, 168 h) [nM] | IC50 (OVCAR3 cells [7]; Homo sapiens, OVCAR-3, CCK8, 96 h) [nM] | IC50 (OVCAR3 cells [7]; CCK8, 96 h) [nM] | EC50 (HCT-116 cells [1]) [nM] | EC50 (HT-29 cells [2]) [nM] | IC50 (BT-549 cells) [nM] | IC50 (HT-29 cells [4]) [nM] | IC50 (HCT-116 cells [5]) [nM] | IC50 (OVCAR3 cells [6]) [nM]
O=C(Nc1cn2cncc2c(N2CCC(F)(F)CC2)n1)c1ccc(NS(=O)(=O)CCO)cc1N1CCC2(CC1)CC2 [Compound 27] | 23.1 | – | – | – | – | – | – | – | – | – | – | – | 27.2 | > 10000 | 34.6 | 81.9 | 141 | > 10000 | 38.6
O=C(Nc1cc2nn[nH]c2c(N2CCC(F)(F)CC2)n1)c1ccc(NS(=O)(=O)CCO)cc1N1CCC2(CC1)CC2 [Compound 28] | 33.4 | – | – | – | – | – | – | – | – | – | – | – | 23.4 | > 10000 | 77.8 | 117 | 321 | > 10000 | 27.4
O=C(Nc1cn2ccnc2c(N2CC3(CCC3)C2)n1)c1ccc(NS(=O)(=O)CCO)cc1N1CCC2(CC1)CC2 [Compound 29] | 63.4 | > 10000 | 108 | – | – | – | – | 1040 | 335 | > 10000 | 220 | 206 | – | – | – | – | – | – | –

The next lines start with results.

IC50 (KIF18A) [nM] | EC50 (HCT-116 cells [1]; Homo sapiens) [nM] | EC50 (HT-29 cells [2]; Homo sapiens) [nM] | F [3] [%] | AUC [3] [µM·h] | Cmax [3] [nM] | half-life [3] [h] | IC50 (BT-549 cells; Homo sapiens) [nM] | IC50 (HT-29 cells [4]; Homo sapiens) [nM] | IC50 (HCT-116 cells [5]; Homo sapiens) [nM] | IC50 (OVCAR3 cells [6]; Homo sapiens, OVCAR-3, 168 h) [nM] | IC50 (OVCAR3 cells [7]; Homo sapiens, OVCAR-3, CCK8, 96 h) [nM] | Structure (SMILES) | IC50 (OVCAR3 cells [7]; CCK8, 96 h) [nM] | EC50 (HCT-116 cells [1]) [nM] | EC50 (HT-29 cells [2]) [nM] | IC50 (BT-549 cells) [nM] | IC50 (HT-29 cells [4]) [nM] | IC50 (HCT-116 cells [5]) [nM] | IC50 (OVCAR3 cells [6]) [nM]
15.2 | > 10000 | 139 | 25 | 0.604 | 217 | 2.4 | 109 | 146 | > 10000 | 36 | – | O=C(Nc1cn2ccnc2c(N2CCOCC2)n1)c1ccc(NS(=O)(=O)CCO)cc1N1CCC2(CC1)CC2 [Compound 11] | – | – | – | – | – | – | –
10.2 | > 10000 | 51 | 18.3 | 2.41 | 526 | 2.6 | 34 | 73 | > 10000 | 15 | – | O=C(Nc1cn2ccnc2c(N2CCCCC2)n1)c1ccc(NS(=O)(=O)CCO)cc1N1CCC2(CC1)CC2 [Compound 12] | – | – | – | – | – | – | –
